Measured values from the NIST ThermoML archive (doi:10.1016/j.fluid.2013.06.021).

Assay: xn = mol fraction of the nth substance listed
Details: 101 kPa, Liquid; for speed of sound: Sing-around technique in a fixed-path interferometer; for mass density: Vibrating tube method; for viscosity: Capillary tube (Ostwald / Ubbelohde) method

CCCCOCCO [2-butoxyethan-1-ol] + CCC(C)O
Details | mass density [kg/m3] | speed of sound [m/s] | viscosity [mPa·s]
293.15 K, x1 = 0.0517 | 813.24 | 1236.5 | –
293.15 K, x1 = 0.1011 | 819.25 | 1242 | –
293.15 K, x1 = 0.152 | 825.25 | 1247.7 | –
293.15 K, x1 = 0.2027 | 831.03 | 1253.1 | –
293.15 K, x1 = 0.2541 | 836.67 | 1258.4 | –
293.15 K, x1 = 0.3092 | 842.49 | 1264 | –
293.15 K, x1 = 0.4012 | 851.78 | 1272.9 | –
293.15 K, x1 = 0.5011 | 861.21 | 1282.2 | –
293.15 K, x1 = 0.6065 | 870.53 | 1291.4 | –
293.15 K, x1 = 0.7054 | 878.73 | 1299.8 | –
293.15 K, x1 = 0.806 | 886.59 | 1307.9 | –
293.15 K, x1 = 0.8558 | 890.31 | 1311.8 | –
293.15 K, x1 = 0.8999 | 893.54 | 1315.3 | –
293.15 K, x1 = 0.9516 | 897.19 | 1319.3 | –
298.15 K, x1 = 0.0517 | 809.099 | 1218.9 | 2.932
298.15 K, x1 = 0.1011 | 815.491 | 1224.3 | 2.809
298.15 K, x1 = 0.152 | 821.091 | 1229.9 | 2.713
298.15 K, x1 = 0.2027 | 826.863 | 1235.3 | 2.66
298.15 K, x1 = 0.2541 | 832.498 | 1240.7 | 2.607
298.15 K, x1 = 0.3092 | 838.314 | 1246.4 | 2.586
298.15 K, x1 = 0.4012 | 847.585 | 1255.4 | 2.563
298.15 K, x1 = 0.5011 | 857.012 | 1264.8 | 2.583
298.15 K, x1 = 0.6065 | 866.34 | 1274.2 | –
298.15 K, x1 = 0.6066 | – | – | 2.598
298.15 K, x1 = 0.7054 | 874.537 | 1282.5 | 2.653
298.15 K, x1 = 0.806 | 882.398 | 1290.7 | 2.711
298.15 K, x1 = 0.8558 | 886.109 | 1294.6 | 2.747
298.15 K, x1 = 0.8999 | 889.334 | 1298.1 | 2.796
298.15 K, x1 = 0.9516 | 892.99 | 1302.2 | 2.824
303.15 K, x1 = 0.0517 | 804.88 | 1202 | 2.441
303.15 K, x1 = 0.1011 | 810.88 | 1207 | 2.357
303.15 K, x1 = 0.152 | 816.86 | 1212.3 | 2.319
303.15 K, x1 = 0.2027 | 822.62 | 1217.7 | 2.283
303.15 K, x1 = 0.2541 | 828.26 | 1223 | 2.249
303.15 K, x1 = 0.3092 | 834.08 | 1228.6 | 2.22
303.15 K, x1 = 0.4012 | 843.34 | 1237.7 | 2.224
303.15 K, x1 = 0.5011 | 852.78 | 1247.4 | 2.283
303.15 K, x1 = 0.6065 | 862.11 | 1257.1 | –
303.15 K, x1 = 0.6066 | – | – | 2.342
303.15 K, x1 = 0.7054 | 870.3 | 1265.5 | 2.419
303.15 K, x1 = 0.806 | 878.16 | 1273.8 | 2.488
303.15 K, x1 = 0.8558 | 881.88 | 1277.7 | 2.53
303.15 K, x1 = 0.8999 | 885.1 | 1281.2 | 2.562
303.15 K, x1 = 0.9516 | 888.76 | 1285.1 | 2.606
308.15 K, x1 = 0.0517 | 800.58 | 1183 | 2.081
308.15 K, x1 = 0.1011 | 806.58 | 1188.7 | 2.031
308.15 K, x1 = 0.152 | 812.55 | 1194.5 | 1.994
308.15 K, x1 = 0.2027 | 818.33 | 1200 | 1.97
308.15 K, x1 = 0.2541 | 823.96 | 1205.6 | 1.944
308.15 K, x1 = 0.3092 | 829.79 | 1211.4 | 1.935
308.15 K, x1 = 0.4012 | 839.07 | 1220.6 | 1.935
308.15 K, x1 = 0.5011 | 848.49 | 1230.3 | 1.964
308.15 K, x1 = 0.6065 | 857.81 | 1240 | –
308.15 K, x1 = 0.6066 | – | – | 1.998
308.15 K, x1 = 0.7054 | 866.02 | 1248.6 | 2.064
308.15 K, x1 = 0.806 | 873.9 | 1256.7 | 2.112
308.15 K, x1 = 0.8558 | 877.63 | 1260.8 | 2.144
308.15 K, x1 = 0.8999 | 880.86 | 1264.2 | 2.172
308.15 K, x1 = 0.9516 | 884.53 | 1268.2 | 2.196
313.15 K, x1 = 0.0517 | 796.19 | 1164.9 | –
313.15 K, x1 = 0.1011 | 802.19 | 1170.6 | –
313.15 K, x1 = 0.152 | 808.15 | 1176.6 | –
313.15 K, x1 = 0.2027 | 813.93 | 1182.3 | –
313.15 K, x1 = 0.2541 | 819.59 | 1188 | –
313.15 K, x1 = 0.3092 | 825.43 | 1193.9 | –
313.15 K, x1 = 0.4012 | 834.71 | 1203.5 | –
313.15 K, x1 = 0.5011 | 844.14 | 1213.3 | –
313.15 K, x1 = 0.6065 | 853.46 | 1223.1 | –
313.15 K, x1 = 0.7054 | 861.68 | 1231.8 | –
313.15 K, x1 = 0.806 | 869.59 | 1240.2 | –
313.15 K, x1 = 0.8558 | 873.33 | 1244.1 | –
313.15 K, x1 = 0.8999 | 876.56 | 1247.6 | –
313.15 K, x1 = 0.9516 | 880.24 | 1251.6 | –
